Patent US9464326B2, “Total and phosphorylated IL-1 receptor-associated kinase-1 and IL-1 receptor-associated kinase-4 as a biomarker for cancer progression and chemotherapy resistance” (University of Maryland, Baltimore, priority 2012, dated 2016)

Tests used:
CCRF-CEM cells = assay: Cell number and apoptosis assays; assay type: cell-based, human; settings: 5 uM, 24-96 hours
Procedure: TLR ligands were diluted 2-fold. Cell lines (25-40×10^3/well) were cultured for 54 hours, whereas fresh patient-derived T-ALL cells (200×10^3/well) were cultured for 30 hours prior to adding [^3H]-thymidine for 18 hours. After this time point, cells were harvested with a Packard Filter-Mate-96 cell harvester (Perkin Elmer, Waltham, Mass., USA) and counted on Packard Top Count-NXT (Perkin Elmer, Waltham, Mass., USA). Results were expressed as average counts per minute (cpm). In some experiments CCRF-CEM cells were pre-treated with TLR1-TLR2 ligand (Pam3CysK4; 2.5 ug/ml) for 48 hrs, washed, and then cultured in the presence of varying concentrations of FBS. Forty-eight hours later, proliferation (±SD) was determined by ^3H-thymidine incorporation. Alternatively, apoptosis was measured by flow cytometry after staining cells with Annexin-V (BD Pharmingen, San Diego, Calif., USA) and propidium iodide (Sigma). Cell number was counted under microscopy by staining cells with trypan blue.
CCRF-CEM cells were treated with IRAK-1,-4 inhibitor for 24, 48, 72, and 96 hours.
The T-ALL cell line CCRF-CEM was cultured in the presence of 0, 1.2, 5, 10, and 20 μM IRAK-1,-4 inhibitor. (FIG. 23). To each concentration of IRAK-1,-4 inhibitor titrating doses of ABT-737 (1000→15 nM) vincristine, VS (10→0.1 nM), and paclitaxol, PAC (100→1.5 nM). […] Apoptosis was measure 48 hours later by staining cells with 7AAD and analyzed by flow cytometry.

CCRF-CEM T-ALL cells = assay: Antibody (protein) array of apoptosis-related proteins; settings: IRAK-1,-4 inhibitor vs DMSO, 72 hours, normalised to GAPDH
Procedure: We also used a protein array from Full Moon Biosystems (Sunnyvale, Calif., USA). For these experiments, purified T-ALL cells were incubated for 48 hours in the presence of IRAK-1,-4 inhibitor (5 μM) or an equal volume of vehicle (DMSO). Then, total protein was extracted, and the levels of various proteins were measured according to the manufacturer's protocol.

C32 melanoma cells = assay: Vinblastine-induced apoptosis in C32 (flow cytometry); assay type: cell-based, human; settings: vinblastine 100 nM with TLR1-TLR2 ligand 2.5 μg/ml, 48 hours, FIG. 20B
Procedure: FIG. 20. Role of TLR-induced cytokines and NF-kB on cell survival. (A) A375 melanoma cells were cultured in a 48-well plates in the presence or absence of NF-kB inhibitor NF-kB inhibitor SN50 (100 nM; Anaspec) with or without vinblastine (100 nM) or Doxorubicin (0.25 μg/ml). The percentage of apoptotic cells was measured by staining cells with Annexin and PI 48 hours later and analyzed by flow cytometry. (B) C32 melanoma cells were cultured in the presence of vinblastine (100 nM) and in the […] of TLR1-TLR2 ligand (2.5 μg/ml) or the presence of supernatant from TLR1-TLR2-stimulated A375 cells. After 48 hours, apoptosis was measured by flow cytometry. (C) A375 melanoma cells were cultured in the presence or absence of vinblastine (100 nM) and IL-1 (50 ng/ml; BioLegend), IL-18 (100 ng/ml; Medical and Biological Lab) or CXCL1 (50 ng/ml; R&D Systems). Apoptosis was measured 48 hours later by flow cytometry.
Alternatively, cytokines/chemokines produced in response to TLR-IRAK signaling might also contribute to the chemoprotective effects. Supernatant from TLR-1-TLR-2 stimulated or unstimulated A375 melanoma cells was added to the C32 melanoma cells in the presence or absence of vinblastine. Another group of cells were treated with TLR1-TLR2 ligand and apoptosis was examined by flow cytometry. […]

O=C(Nc1nc2ccccc2n1CCN1CCOCC1)c1cccc([N+](=O)[O-])c1 [IRAK-1,-4 inhibitor]
number of viable cells (CCRF-CEM cells; FIG. 14B): maintained a relatively constant number of viable cells
apoptosis (sub-G1 phase, Annexin V) (CCRF-CEM cells; FIG. 14D): did not induce apoptosis
Fold Change: AFX(Ab-197) (CCRF-CEM T-ALL cells): −2.62 fold
Fold Change: AFX(Phospho-Ser 97) (CCRF-CEM T-ALL cells): −2.03 fold
Fold Change: BAD(Ab-112) (CCRF-CEM T-ALL cells): −1.76 fold
Fold Change: BAD(Phospho-Ser112) (CCRF-CEM T-ALL cells): −2.44 fold
Fold Change: BCL-XL(Phospho-Ser62) (CCRF-CEM T-ALL cells): −2.42 fold
Fold Change: CDC2(Phospho-Tyr15) (CCRF-CEM T-ALL cells): −2.33 fold
Fold Change: FKHR(Ab-319) (CCRF-CEM T-ALL cells): −2.54 fold
Fold Change: FKHRL1(Ab-253) (CCRF-CEM T-ALL cells): −2.36 fold
Fold Change: FKHRL1(Phospho-Ser253) (CCRF-CEM T-ALL cells): −2.53 fold
Fold Change: GSK3 alpha(Phospho-Ser21) (CCRF-CEM T-ALL cells): −2.13 fold
Fold Change: HSP27(Phospho-Ser15) (CCRF-CEM T-ALL cells): −2.20 fold
Fold Change: IKB-alpha(Ab-32/36) (CCRF-CEM T-ALL cells): −1.96 fold
Fold Change: IKB-alpha(Phospho-Ser32/Phospho-Ser36) (CCRF-CEM T-ALL cells): −2.95 fold
Fold Change: IRS-1(Phospho-Ser639) (CCRF-CEM T-ALL cells): −2.37 fold
Fold Change: JAK2(Phospho-Tyr221) (CCRF-CEM T-ALL cells): −2.05 fold
Fold Change: NFKB-p65(Ab-435) (CCRF-CEM T-ALL cells): −1.39 fold
Fold Change: NFKB-p65(Phospho-Thr435) (CCRF-CEM T-ALL cells): −2.39 fold
Fold Change: NFKB-p100/p52(Phospho-Ser869) (CCRF-CEM T-ALL cells): −2.50 fold
Fold Change: NFKB-p105/p50(Phospho-Ser337) (CCRF-CEM T-ALL cells): −4.06 fold
Fold Change: PTEN(Phospho-Ser380) (CCRF-CEM T-ALL cells): 1.35 fold
Fold Change: Raf1(Phospho-Ser338) (CCRF-CEM T-ALL cells): −2.46 fold
Fold Change: STAT1(Phospho-Ser727) (CCRF-CEM T-ALL cells): −2.17 fold
Fold Change: STAT3(Phospho-Ser727) (CCRF-CEM T-ALL cells): −2.11 fold
Fold Change: p44/42 MAP Kinase(Phospho-Tyr204) (CCRF-CEM T-ALL cells): −2.24 fold
Fold Change: p53(Ab-46) (CCRF-CEM T-ALL cells): −1.39 fold
Fold Change: p53(Phospho-Ser46) (CCRF-CEM T-ALL cells): −2.27 fold

tripalmitoyl-S-(bis(palmitoyloxy)propyl)-Cys-Ser-(Lys)3-Lys [Pam3Cysk4]
vinblastine-induced apoptosis (C32 melanoma cells): little effect
